Source: the NIST ThermoML archive (doi:10.1016/j.jct.2006.02.005)
Values joined by “and” are separate entries in the source; they are usually repeats but may differ in a detail not shown here. Equal entries are not always repeated. ± gives the expanded uncertainty stated by the source.

Assays:
[1] = Molar enthalpy of transition or fusion
[2] = molar heat capacity at constant pressure; conditions: 101.33 kPa

Compound: CC(C)(CO)CO [2,2-dimethyl-1,3-propanediol]
- Normal melting temperature (Crystal 1): 128.48 ± 1 °C
- Triple point temperature (Crystal 2): 315.14 ± 1 K
- Molar enthalpy of transition or fusion ([1]; Crystal 1): 4.22 ± 0.41 kJ/mol
- Molar enthalpy of transition or fusion ([1]; Crystal 2): 12.2 ± 0.81 kJ/mol
- molar heat capacity at constant pressure ([2]; 193.15 K, Crystal 2): 120.71 ± 4.8 J/K/mol and 121.44 ± 4.9 J/K/mol
- molar heat capacity at constant pressure ([2]; 198.15 K, Crystal 2): 122.48 ± 4.9 J/K/mol and 123 ± 4.9 J/K/mol
- molar heat capacity at constant pressure ([2]; 203.15 K, Crystal 2): 124.15 ± 5 J/K/mol and 124.36 ± 5 J/K/mol
- molar heat capacity at constant pressure ([2]; 208.15 K, Crystal 2): 123.83 ± 5 J/K/mol and 125.5 ± 5 J/K/mol
- molar heat capacity at constant pressure ([2]; 213.15 K, Crystal 2): 125.6 ± 5 J/K/mol and 127.58 ± 5.1 J/K/mol
- molar heat capacity at constant pressure ([2]; 218.15 K, Crystal 2): 127.48 ± 5.1 J/K/mol and 130.08 ± 5.2 J/K/mol
- molar heat capacity at constant pressure ([2]; 223.15 K, Crystal 2): 130.08 ± 5.2 J/K/mol and 132.06 ± 5.3 J/K/mol
- molar heat capacity at constant pressure ([2]; 228.15 K, Crystal 2): 132.79 ± 5.3 J/K/mol and 133.62 ± 5.3 J/K/mol
- molar heat capacity at constant pressure ([2]; 233.15 K, Crystal 2): 134.98 ± 5.4 J/K/mol and 134.87 ± 5.4 J/K/mol
- molar heat capacity at constant pressure ([2]; 238.15 K, Crystal 2): 135.71 ± 5.4 J/K/mol and 136.54 ± 5.5 J/K/mol
- molar heat capacity at constant pressure ([2]; 243.15 K, Crystal 2): 136.64 ± 5.5 J/K/mol and 138.1 ± 5.5 J/K/mol
- molar heat capacity at constant pressure ([2]; 248.15 K, Crystal 2): 136.64 ± 5.5 J/K/mol and 140.5 ± 5.6 J/K/mol
- molar heat capacity at constant pressure ([2]; 253.15 K, Crystal 2): 138 ± 5.5 J/K/mol and 142.37 ± 5.7 J/K/mol
- molar heat capacity at constant pressure ([2]; 258.15 K, Crystal 2): 139.46 ± 5.6 J/K/mol and 144.66 ± 5.8 J/K/mol
- molar heat capacity at constant pressure ([2]; 263.15 K, Crystal 2): 141.23 ± 5.7 J/K/mol and 147.79 ± 5.9 J/K/mol
- molar heat capacity at constant pressure ([2]; 268.15 K, Crystal 2): 142.89 ± 5.7 J/K/mol and 150.6 ± 6 J/K/mol
- molar heat capacity at constant pressure ([2]; 273.15 K, Crystal 2): 145.29 ± 5.8 J/K/mol and 153.62 ± 6.1 J/K/mol
- molar heat capacity at constant pressure ([2]; 278.15 K, Crystal 2): 156.54 ± 6.3 J/K/mol and 147.48 ± 5.9 J/K/mol
- molar heat capacity at constant pressure ([2]; 283.15 K, Crystal 2): 160.08 ± 6.4 J/K/mol and 150.18 ± 6 J/K/mol
- molar heat capacity at constant pressure ([2]; 288.15 K, Crystal 2): 164.45 ± 6.6 J/K/mol and 153.31 ± 6.1 J/K/mol
- molar heat capacity at constant pressure ([2]; 293.15 K, Crystal 2): 168.1 ± 6.7 J/K/mol and 156.12 ± 6.2 J/K/mol
- molar heat capacity at constant pressure ([2]; 298.15 K, Crystal 2): 172.06 ± 6.9 J/K/mol and 159.25 ± 6.4 J/K/mol
- molar heat capacity at constant pressure ([2]; 303.15 K, Crystal 2): 176.53 ± 7.1 J/K/mol and 163.1 ± 6.5 J/K/mol
- molar heat capacity at constant pressure ([2]; 308.15 K, Crystal 2): 184.35 ± 7.4 J/K/mol and 167.58 ± 6.7 J/K/mol
- molar heat capacity at constant pressure ([2]; 323.15 K, Crystal 1): 260.17 ± 16 J/K/mol and 244.86 ± 15 J/K/mol
- molar heat capacity at constant pressure ([2]; 328.15 K, Crystal 1): 268.5 ± 16 J/K/mol and 247.56 ± 15 J/K/mol
- molar heat capacity at constant pressure ([2]; 333.15 K, Crystal 1): 250.27 ± 15 J/K/mol and 274.54 ± 16 J/K/mol
- molar heat capacity at constant pressure ([2]; 338.15 K, Crystal 1): 252.15 ± 15 J/K/mol and 278.81 ± 17 J/K/mol
- molar heat capacity at constant pressure ([2]; 343.15 K, Crystal 1): 254.75 ± 15 J/K/mol and 282.45 ± 17 J/K/mol
- molar heat capacity at constant pressure ([2]; 348.15 K, Crystal 1): 256.52 ± 15 J/K/mol and 286.2 ± 17 J/K/mol
- molar heat capacity at constant pressure ([2]; 353.15 K, Crystal 1): 258.71 ± 16 J/K/mol and 288.81 ± 17 J/K/mol
- molar heat capacity at constant pressure ([2]; 358.15 K, Crystal 1): 260.79 ± 16 J/K/mol and 291.2 ± 17 J/K/mol
- molar heat capacity at constant pressure ([2]; 363.15 K, Crystal 1): 263.19 ± 16 J/K/mol and 294.22 ± 18 J/K/mol
- molar heat capacity at constant pressure ([2]; 368.15 K, Crystal 1): 265.69 ± 16 J/K/mol and 296.93 ± 18 J/K/mol
- molar heat capacity at constant pressure ([2]; 373.15 K, Crystal 1): 268.39 ± 16 J/K/mol and 299.85 ± 18 J/K/mol
- molar heat capacity at constant pressure ([2]; 378.15 K, Crystal 1): 272.04 ± 16 J/K/mol and 303.6 ± 18 J/K/mol
- molar heat capacity at constant pressure ([2]; 383.15 K, Crystal 1): 277.04 ± 17 J/K/mol and 309.64 ± 19 J/K/mol
- molar heat capacity at constant pressure ([2]; 388.15 K, Crystal 1): 285.06 ± 17 J/K/mol and 322.55 ± 19 J/K/mol
- molar heat capacity at constant pressure ([2]; 393.15 K, Crystal 1): 309.85 ± 19 J/K/mol and 358.48 ± 22 J/K/mol
- molar heat capacity at constant pressure ([2]; 408.15 K, Liquid): 330.26 ± 13 J/K/mol
- molar heat capacity at constant pressure ([2]; 413.15 K, Liquid): 339.95 ± 14 J/K/mol
- molar heat capacity at constant pressure ([2]; 418.15 K, Liquid): 345.99 ± 14 J/K/mol
- molar heat capacity at constant pressure ([2]; 423.15 K, Liquid): 353.38 ± 14 J/K/mol
